The record followed here is patent US8278290B2, “Tubulin polymerisation inhibitors” (Biononics Limited, priority 2005, dated 2012).

Several values for one entry are separate records, joined by “and”; a condition that tells them apart may be missing. Equal entries are not always repeated. Bounds are passed on as bounds.

The test system of one test is MCF-7, cancer cell line. The experiment in a line: MCF-7 growth inhibition (SRB or Sysmex cell counting). To be noted: SRB or CC assay. The test is classed as cell-based.
Test [1] deals with Human umbilical vein endothelial cells. The experiment in a line: Proliferation Assay - activated endothelium (MTT). The class given is cell-based. To be noted: HUVEC, range within which the IC50 value falls, 48 hrs culture, read-out: Inhib activated HUVECs IC50. The protocol:
Proliferation Assay—activated endothelium: Human umbilical vein endothelial cells (CC-2519, Clonetics) were plated at 2500 cells/well in EGM2 (CC-3162, Clonetics) in a 96 well plate in triplicate. Cells were cultured overnight at 37° C. 5% CO2. Medium was subsequently replaced with fresh medium including the compound or negative control. Cells were cultured for a period of 48 hrs. An MTT assay was performed to measure changes in cell numbers. Briefly, 20 μl of MTT reagent was added to cells containing 100 μl of EGM2 and incubated at 37° C. for 2 hours. Absorbance was measured at 492 nm.

[2] abbreviates: Homo sapiens, MCF7, concentration required to inhibit net cell growth by 50%.
Where [3] appears, read: concentration required to inhibit net cell growth by 50%.

`COc1cc(C(=O)c2c(-c3c(C)noc3C)oc3c(O)c(OC)ccc23)cc(OC)c1OC` [Entry 25, 2-(3,5-dimethylisoxazol-4-yl)-7-hydroxy-3-(3,4,5-trimethoxy-benzoyl)-6-methoxybenzo[b]furan]: the half-maximal inhibitory concentration (IC50) (as a rule, the midpoint of a concentration-inhibition curve) in the test on MCF-7, cancer cell line (setting [2]) is 68 nM; in the test on MCF-7, cancer cell line (setting [3]), 57 nM; in test [1] it was 10 to 100 nM.
In the case of `COc1cc(C(=O)c2c(-c3cnn(C)c3)oc3c([N+](=O)[O-])c(OC)ccc23)cc(OC)c1OC` [Entry 20, [6-Methoxy-7-nitro-2-(1-methyl-1H-pyrazol-4-yl)-benzofuran-3-yl]-(3,4,5-trimethoxyphenyl)-methanone], the IC50 in the test with MCF-7, cancer cell line (setting [2]) was 33 nM; in the test with MCF-7, cancer cell line (setting [3]), 40 nM; in test [1], 10 to 100 nM.
Consider `COc1cc(C(=O)c2c(-n3ccnn3)oc3c(O)c(OC)ccc23)cc(OC)c1OC` [Entry 35, 2-(1N-1,2,3-triazolyl)-7-hydroxy-3-(3,4,5-trimethoxybenzoyl)-6-methoxy-benzo[b]furan], for which the half-maximal inhibitory concentration (IC50) in test [1] was in the range of 1 to 10 nM.
As for `COc1cc(C(=O)c2coc3c(O)c(OC)ccc23)cc(OC)c1OC` [Entry 7, reference compound], the IC50 is 62 nM with MCF-7, cancer cell line (setting [2]); 31 nM in the test with MCF-7, cancer cell line (setting [3]); 10 to 100 nM in test [1].
As to `COc1cc(C(=O)c2c(-c3nn[nH]n3)oc3c(O)c(OC)ccc23)cc(OC)c1OC` [Entry 57, 7-Hydoxy-6-methoxy-2-(2H-tetrazol-5-yl)-3-(3,4,5-trimethoxybenzoyl)-benzo[b]furan], the IC50 in the test with MCF-7, cancer cell line (setting [2]) lay in the range of 10 to 100 nM; in test [1], 10 to 100 nM.
Consider `COc1cc(C(=O)c2c(-c3cnn(C)c3)oc3c2ccc2ocnc23)cc(OC)c1OC` [Entry 33], for which the half-maximal inhibitory concentration (IC50) with MCF-7, cancer cell line (setting [2]) is 540 nM; in the test on MCF-7, cancer cell line (setting [3]), 600 nM; in test [1], 100 to 1000 nM.
As to `COc1cc(C(=O)c2c(-c3ccco3)oc3c(OP(=O)(O)O)c(OC)ccc23)cc(OC)c1OC` [Entry 47, 7-(O-disodiumphosphate)-2-(2-furyl)-6-methoxy-3-(3,4,5-trimethoxybenzoyl)benzo-[b]furan], the IC50 in the test with MCF-7, cancer cell line (setting [2]) stood at 0.26 nM; in the test with MCF-7, cancer cell line (setting [3]), 0.31 nM.
Turning to `COc1cc(C(=O)c2c(-c3c[nH]nn3)oc3c(O)c(OC)ccc23)cc(OC)c1OC` [Entry 58, 17-Hydroxy-6-methoxy-2-(2H-[1,2,3]triazol-4-yl)-3-(3,4,5-trimethoxybenzoyl)benzo[b]furan], the IC50 in the test on MCF-7, cancer cell line (setting [2]) lay in the range of 1 to 10 nM; in test [1], 1 to 10 nM.
With `COc1cc(C(=O)c2c(-c3cnn(C)c3)oc3c(O)c(OC)ccc23)cc(OC)c1O` [Entry 22], the IC50 came to 25 nM in the test on MCF-7, cancer cell line (setting [2]) and 29 nM in the test with MCF-7, cancer cell line (setting [3]).
As for `COc1cc(C(=O)c2c(-c3cnn(Cc4ccccc4)c3)oc3c(O)c(OC)ccc23)cc(OC)c1OC` [Entry 15], the IC50 stood at 4.1 nM in the test with MCF-7, cancer cell line (setting [2]) and 3.3 nM with MCF-7, cancer cell line (setting [3]).
With `COc1cc(C(=O)c2c(-c3cn[nH]c3)oc3c(O)c(OC)ccc23)cc(OC)c1OC` [Entry 16, [7-Hydroxy-6-methoxy-2-(1H-pyrazol-4-yl)-benzofuran-3-yl]-(3,4,5-trimethoxyphenyl)-methanone], the IC50 with MCF-7, cancer cell line (setting [2]) was 3 nM; with MCF-7, cancer cell line (setting [3]), 3.4 nM; in test [1] it was 1 to 10 nM.
As to `COc1cc(C(=O)c2c(-c3cnn(CC(N)=O)c3)oc3c(F)c(OC)ccc23)cc(OC)c1OC` [Entry 53, 2-{4-[7-Fluoro-6-methoxy-3-(3,4,5-trimethoxybenzoyl)benzofuran-2-yl]-1H-pyrazol-1-yl}acetamide], the IC50 in the test on MCF-7, cancer cell line (setting [2]) was 7.8 nM; in the test on MCF-7, cancer cell line (setting [3]) it was 8.1 nM; in test [1] it was 0.1 to 1 nM.
As to `COc1cc(C(=O)c2c(-c3cccs3)oc3c(O)c(OC)ccc23)cc(OC)c1OC` [Entry 28, 7-Hydroxy-2-(2-thiophenyl)-3-(3,4,5-trimethoxybenzoyl)-6-methoxy-benzo[b]furan], the IC50 is less than 1 nM in the test on MCF-7, cancer cell line (setting [2]) and 0.1 to 1 nM in test [1].
For the molecule `COc1ccc2c(C(=O)c3cc(OC)c(OC)c(OC)c3)c(-c3cnn(CCN(C)C)c3)oc2c1` [Entry 42, {2-[1-(2-Dimethylamino-ethyl)-1H-pyrazol-4-yl]-6-methoxy-benzofuran-3-yl}-(3,4,5-trimethoxyphenyl)-methanone], the IC50 was 300 nM in the test with MCF-7, cancer cell line (setting [2]); 310 nM in the test on MCF-7, cancer cell line (setting [3]); 100 to 1000 nM in test [1].
`COc1cc(C(=O)c2c(-c3cnn(CC(C)C)c3)oc3c(O)c(OC)ccc23)cc(OC)c1OC` [Entry 26, 2-(4-N-isobutyl-pyrazolyl)-7-hydroxy-3-(3,4,5-trimethoxy-benzoyl)-6-methoxy-benzo[b]furan]: the IC50 in the test with MCF-7, cancer cell line (setting [2]) is 21 nM; in the test with MCF-7, cancer cell line (setting [3]) it was 14 nM; in test [1], 1 to 10 nM.
On to `COc1cc(OC)cc(C(=O)c2c(-c3cnn(C)c3)oc3c(O)c(OC)ccc23)c1` [Entry 24, 2-(4-N-methylpyrazolyl)-3-(3,5-dimethoxybenzoyl)-6-methoxy-7-hydroxy-benzofuran], for which the IC50 was 3.3 nM in the test with MCF-7, cancer cell line (setting [2]); 4.4 nM with MCF-7, cancer cell line (setting [3]); 1 to 10 nM in test [1].
Regarding “2-Imidazol-1-yl-7-O-bis-(triethylammonium)phosphate-6-methoxy-3-(3,4,5-trimethoxybenzoyl)-benzo[b]furan [Entry 49]”, the 50% inhibitory concentration (IC50) with MCF-7, cancer cell line (setting [3]) was 1.4 nM and 2.2 nM.
In the case of `COc1ccc2c(C(=O)c3cc(OC)c(OC)c(OC)c3)c(-c3cn(C)cn3)oc2c1` [Entry 39, [2-(1-methyl-1H-Imidazol-4-yl)-6-methoxy-benzofuran-3-yl]-(3,4,5-trimethoxyphenyl)-methanone], the IC50 was 40 nM in the test on MCF-7, cancer cell line (setting [2]); 35 nM in the test with MCF-7, cancer cell line (setting [3]); 10 to 100 nM in test [1].
As to `COc1cc(C(=O)c2c(-c3cnn(C)c3)oc3c(OC(C)C)c(OC)ccc23)cc(OC)c1OC` [Entry 13], the half-inhibitory concentration (IC50) with MCF-7, cancer cell line (setting [2]) was determined as 48 nM; in the test on MCF-7, cancer cell line (setting [3]), 35 nM.
Turning to `COc1cc(C(=O)c2c(-n3cccn3)oc3c(O)c(OC)ccc23)cc(OC)c1OC` [Entry 34, 2-(N-pyrazolyl)-7-hydroxy-3-(3,4,5-trimethoxybenzoyl)-6-methoxy-benzo[b]furan], the IC50 with MCF-7, cancer cell line (setting [2]) is 3.5 nM; in the test on MCF-7, cancer cell line (setting [3]) it was 2.4 nM; in test [1] it was 100 to 1000 nM.
`COc1ccc(-c2oc3c(OP(=O)(O)O)c(OC)ccc3c2C(=O)c2cc(OC)c(OC)c(OC)c2)cc1` [Entry 8, reference compound]: the IC50 is 3.6 nM with MCF-7, cancer cell line (setting [2]); 4.2 nM and 6 nM and 4.7 nM with MCF-7, cancer cell line (setting [3]).
Consider `COc1ccc2c(C(=O)c3cc(OC)c(OC)c(OC)c3)c(-c3cnn(C)c3)[nH]c2c1` [Entry 19, [6-Methoxy-2-(1-methyl-1H-pyrazol-4-yl)-1H-indol-3-yl]-(3,4,5-trimethoxyphenyl)-methanone], for which the IC50 in the test on MCF-7, cancer cell line (setting [2]) is 12 nM; in test [1] it was 10 to 100 nM.
On to `COc1ccc(/C=C\c2cc(OC)c(OC)c(OC)c2)cc1O` [Entry 1, reference compound], for which the IC50 in test [1] was in the range of 1 to 10 nM.
With `COc1cc(C(=O)c2c(-c3nccs3)oc3c(OP(=O)(O)O)c(OC)ccc23)cc(OC)c1OC` [Entry 48, 2-(2-Thiazolyl)-7-O-disodiumphosphate-6-methoxy-3-(3,4,5-trimethoxybenzoyl)-benzo[b]furan], the concentration for half-maximal inhibition (IC50) in the test with MCF-7, cancer cell line (setting [2]) was found to be 0.53 nM; with MCF-7, cancer cell line (setting [3]), 0.4 nM.
`COc1cc(C(=O)c2c(-c3cnn(CC(N)=O)c3)oc3c(O)c(OC)ccc23)cc(OC)c1OC` [Entry 51, 2-{4-[7-Hydroxy-6-methoxy-3-(3,4,5-trimethoxybenzoyl)-benzofuran-2-yl]-pyrazol-1-yl}-acetamide]: the IC50 in test [1] lay within 0.1 to 1 nM.
On to `COc1cc(C(=O)c2coc3c(OP(=O)(O)O)c(OC)ccc23)cc(OC)c1OC` [Entry 9, reference compound], for which the 50% inhibitory concentration (IC50) stood at 41 nM in the test with MCF-7, cancer cell line (setting [2]) and 82 nM in the test on MCF-7, cancer cell line (setting [3]).
